Values joined by “and” are separate entries in the source; they are usually repeats but may differ in a detail not shown here. Equal entries are not always repeated. Inconclusive results and toxic doses are left out.
System: CD2F1 mice, L1210 leukemia sc, survival T/C
Experiment: NCI In Vivo Anticancer Drug Screen. Data for tumor model L1210 Leukemia (subcutaneous) in CD2F1 (CDF1) mice
Details: higher = longer survival
Summary of the method: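 T/C ratio: treated-group survival or tumor size over vehicle-control group measurement, in mice carrying transplanted tumors.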

CN(C)/N=N/c1nc[nH]c1C(N)=O
T/C (endpoint: mean survival time, dose: 39.0 mg/kg/injection, schedule: Q01DX009 (sc), vehicle: steriod suspending solution): 118 % of control
T/C (endpoint: mean survival time, dose: 50.0 mg/kg/injection, schedule: Q01DX017 (sc), vehicle: steriod suspending solution): 117 % of control
T/C (endpoint: mean survival time, dose: 65.0 mg/kg/injection, schedule: Q01DX009 (sc), vehicle: steriod suspending solution): 118 % of control
T/C (endpoint: mean survival time, dose: 200.0 mg/kg/injection, schedule: Q01DX017 (sc), vehicle: steriod suspending solution): 156 % of control
T/C (endpoint: mean survival time, dose: 400.0 mg/kg/injection, schedule: Q01DX017 (sc), vehicle: steriod suspending solution): 172 % of control
T/C (endpoint: median survival time, dose: 6.25 mg/kg/injection, schedule: Q01DX009 (ip), vehicle: saline): 104 % of control
T/C (endpoint: median survival time, dose: 12.5 mg/kg/injection, schedule: Q01DX009 (ip), vehicle: saline): 121 % of control
T/C (endpoint: median survival time, dose: 39.0 mg/kg/injection, schedule: Q01DX009 (sc), vehicle: steriod suspending solution): 114 % of control
T/C (endpoint: median survival time, dose: 39.0 mg/kg/injection, schedule: Q01DX Z (sc), vehicle: steriod suspending solution): 111 % of control
T/C (endpoint: median survival time, dose: 50.0 mg/kg/injection, schedule: Q01DX017 (sc), vehicle: steriod suspending solution): 118 % of control and 122 % of control
T/C (endpoint: median survival time, dose: 65.0 mg/kg/injection, schedule: Q01DX009 (sc), vehicle: steriod suspending solution): 117 % of control
T/C (endpoint: median survival time, dose: 65.0 mg/kg/injection, schedule: Q01DX Z (sc), vehicle: carboxymethylcellulose (CMC)): 100 % of control
T/C (endpoint: median survival time, dose: 65.0 mg/kg/injection, schedule: Q01DX Z (sc), vehicle: steriod suspending solution): 116 % of control
T/C (endpoint: median survival time, dose: 100.0 mg/kg/injection, schedule: Q01DX009 (ip), vehicle: saline with Tween-80): 157 % of control
T/C (endpoint: median survival time, dose: 100.0 mg/kg/injection, schedule: Q01DX009 (ip), vehicle: saline): 157 % of control
T/C (endpoint: median survival time, dose: 100.0 mg/kg/injection, schedule: Q01DX009 (sc), vehicle: saline): 151 % of control
T/C (endpoint: median survival time, dose: 108.0 mg/kg/injection, schedule: Q01DX Z (sc), vehicle: carboxymethylcellulose (CMC)): 100 % of control
T/C (endpoint: median survival time, dose: 150.0 mg/kg/injection, schedule: Q01DX009 (ip), vehicle: saline): 178 % of control
T/C (endpoint: median survival time, dose: 180.0 mg/kg/injection, schedule: Q01DX Z (sc), vehicle: carboxymethylcellulose (CMC)): 100 % of control
T/C (endpoint: median survival time, dose: 200.0 mg/kg/injection, schedule: Q01DX009 (ip), vehicle: saline with Tween-80): 160 % of control
T/C (endpoint: median survival time, dose: 200.0 mg/kg/injection, schedule: Q01DX009 (ip), vehicle: saline): 166 % of control
T/C (endpoint: median survival time, dose: 200.0 mg/kg/injection, schedule: Q01DX017 (sc), vehicle: steriod suspending solution): 152 % of control and 155 % of control
T/C (endpoint: median survival time, dose: 225.0 mg/kg/injection, schedule: Q01DX009 (sc), vehicle: saline): 186 % of control
T/C (endpoint: median survival time, dose: 300.0 mg/kg/injection, schedule: Q01DX009 (ip), vehicle: saline): 172 % of control
T/C (endpoint: median survival time, dose: 300.0 mg/kg/injection, schedule: Q01DX009 (sc), vehicle: steriod suspending solution): 153 % of control
T/C (endpoint: median survival time, dose: 300.0 mg/kg/injection, schedule: Q01DX Z (sc), vehicle: carboxymethylcellulose (CMC)): 100 % of control
T/C (endpoint: median survival time, dose: 300.0 mg/kg/injection, schedule: Q01DX Z (sc), vehicle: steriod suspending solution): 155 % of control
T/C (endpoint: median survival time, dose: 400.0 mg/kg/injection, schedule: Q01DX017 (sc), vehicle: steriod suspending solution): 175 % of control and 177 % of control
T/C (endpoint: median survival time, dose: 500.0 mg/kg/injection, schedule: Q01DX Z (sc), vehicle: carboxymethylcellulose (CMC)): 111 % of control and 100 % of control
T/C (endpoint: median survival time, dose: 600.0 mg/kg/injection, schedule: Q01DX009 (sc), vehicle: saline + alcohol): 160 % of control
T/C (endpoint: median survival time, dose: 600.0 mg/kg/injection, schedule: Q01DX009 (sc), vehicle: saline): 118 % of control
T/C (endpoint: median survival time, dose: 800.0 mg/kg/injection, schedule: Q01DX009 (ip), vehicle: saline with Tween-80): 96 % of control
T/C (endpoint: median survival time, dose: 833.0 mg/kg/injection, schedule: Q01DX Z (sc), vehicle: carboxymethylcellulose (CMC)): 150 % of control
T/C (endpoint: median survival time, dose: 900.0 mg/kg/injection, schedule: Q01DX009 (sc), vehicle: saline + alcohol): 155 % of control
T/C (endpoint: median survival time, dose: 1200.0 mg/kg/injection, schedule: Q01DX009 (sc), vehicle: saline): 90 % of control
T/C (endpoint: median survival time, dose: 1388.0 mg/kg/injection, schedule: Q01DX Z (sc), vehicle: carboxymethylcellulose (CMC)): 155 % of control

Oc1cc(CN(CCCl)CCCl)c(O)cc1CN(CCCl)CCCl
T/C (endpoint: median survival time, dose: 23.4 mg/kg/injection, schedule: Q01DX Z (sc), vehicle: methylcellulose (MC)): 105 % of control
T/C (endpoint: median survival time, dose: 38.9 mg/kg/injection, schedule: Q01DX Z (sc), vehicle: methylcellulose (MC)): 110 % of control
T/C (endpoint: median survival time, dose: 64.8 mg/kg/injection, schedule: Q01DX Z (sc), vehicle: methylcellulose (MC)): 115 % of control
T/C (endpoint: median survival time, dose: 108.0 mg/kg/injection, schedule: Q01DX Z (sc), vehicle: methylcellulose (MC)): 115 % of control
T/C (endpoint: median survival time, dose: 180.0 mg/kg/injection, schedule: Q01DX Z (sc), vehicle: methylcellulose (MC)): 105 % of control
